These results are taken from patent US20110172204A1, “COMPOUNDS AND THEIR USE” (TAKEDA PHARMACEUTICAL COMPANY LIMITED, priority 2010, published 2011).

The target of assay [1] is T1, human H3 receptor (Homo sapiens, UniProt Q9Y5N1). Briefly: In vitro H3 functional assay (cAMP response element driven luciferase reporter). The class given is cell-based. The arrangement: expressed in transfected cells. The conditions noted are these: CHO(dhfr+)-cre-luc cells expressing human H3; forskolin 1 μM, RαMH 10 nM; read-out: hH3 functional IC50. The method, then: The functional activity of compounds at the H3 receptor was determined by measuring changes in the level of intracellular cAMP using a cAMP response element driven luciferase reporter assay. The changes in luciferase expression were monitored by a luminescence plate reader, Analyst HT (MDS Analytical). Increases in intracellular cAMP were readily detected upon activation of protein kinase A by forskolin (Sigma) and suppression of this response observed with the application of the H3 receptor agonist RαMH (Sigma).
T1 sequence (Q9Y5N1 whole entry): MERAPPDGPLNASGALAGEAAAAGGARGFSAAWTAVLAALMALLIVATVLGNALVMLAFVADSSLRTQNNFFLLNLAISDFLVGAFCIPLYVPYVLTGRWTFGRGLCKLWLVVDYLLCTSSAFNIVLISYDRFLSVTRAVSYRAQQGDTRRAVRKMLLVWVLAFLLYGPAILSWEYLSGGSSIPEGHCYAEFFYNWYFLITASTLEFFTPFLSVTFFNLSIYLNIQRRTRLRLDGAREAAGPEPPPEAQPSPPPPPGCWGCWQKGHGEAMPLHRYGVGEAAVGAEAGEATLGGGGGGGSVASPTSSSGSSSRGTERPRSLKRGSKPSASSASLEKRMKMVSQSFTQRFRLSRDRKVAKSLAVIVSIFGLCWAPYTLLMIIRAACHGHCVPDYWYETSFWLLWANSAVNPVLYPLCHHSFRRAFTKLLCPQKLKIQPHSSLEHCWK
CHO(dhfr^+)-cre-luc cells stably expressing human H3 receptor were routinely grown as monolayers in Minimal Essential Medium α (MEMα) (Invitrogen) supplemented with 10% dialysed FBS (Hyclone), in 5% CO2 at 37° C. 48 hours prior to assay, cells were seeded in clear-base white walled 384-well plates (Corning) at a density of 5000 cells/well. On the day of assay, growth media was removed and replaced with 15 μl of assay buffer (MEMα, 5 mg/ml fatty acid free BSA (Sigma)) per well. Cells were then incubated for 30 minutes at 37° C., 5% CO2. Compound was serially diluted in DMSO before being diluted 1:10 with assay buffer. 2.5 μl of compound diluted in assay buffer was added and cells incubated for 5 minutes at 37° C., 5% CO2. 2.5 μl of each reagent was then added in the following order: RαMH (10 nM), isobutylmethylxanthine (1-methyl-3-(2-methylpropyl)-7H-purine-2,6-dione; IBMX) (500 μM) (Sigma) and forskolin (1 μM). Cells were then incubated for 90 minutes at 37° C., 5% CO2, followed by 30 minutes at room temperature. At the end of incubation 25 μl of Steadylite reagent (Perkin Elmer) was added, plates were sealed and placed on a shaker for 5 minutes. The level of light output to determine the level of luciferase expression was then measured.
IC50 values for compounds were determined from ten point half log scale dose-response studies and represent the concentration of compound required to […] 50% inhibition of forskolin stimulated cells in the presence of RαMH alone. Curves were generated using the average of duplicate wells for each data point and analyzed using nonlinear regression of four parameter dose response.
(Reporter assays use an easily measured gene product as a stand-in for the process of interest.)

Assay [2] deals with T1, human H3 receptor. Briefly: In vitro H3 binding assay (3H-NαMH competition binding). More on the design: expressed in transfected cells. To be noted: membranes of CHO-K1 cells expressing human H3; inhibition of specific binding of 2 nM 3H-NαMH; read-out: hH3 binding IC50. The protocol:
The ability of compounds to bind to the H3 receptor was determined by measuring the reduction in tritiated N-α-methyl-histamine (^3H-NαMH) binding in a competition binding assay. Changes in the levels of bound radio-label were monitored by scintillation counting with a Trilux Microbeta (Perkin Elmer).
Membranes were prepared from CHO-K1 cells stably expressing human H3 receptor; routinely grown as monolayers in Ham's F12 medium (Invitrogen) supplemented with 10% Foetal Clone III (Hyclone), 500 μg/ml G418 (Invitrogen), 5 μg/ml blasticidine S (Invivogen) and 50 μg/ml Gentamicin (Sigma) in 5% CO2 at 37° C. Cells were grown to 80-95% confluency, rinsed once with 1×PBS (Invitrogen) and detached by incubating with 1×PBS containing 0.02% EDTA (Sigma) for 10 minutes at room temperature. Cells were collected by centrifugation at 900×g, 4° C. for 10 minutes. Cells were rinsed once with 1×PBS and re-suspended in ice cold homogenisation buffer (50 mM Tris-HCl (pH 7.4), 2.5 mM EDTA, 5 mM MgCl2, 200 mM Sucrose) at 1×10^7 cells/ml and kept on ice. Cells were homogenised on ice and debris removed by centrifugation at 500×g, 4° C. for 5 minutes. The resulting supernatant was centrifuged at 75,600×g, 4° C. for 60 minutes. Membranes were suspended in homogenisation buffer, protein concentration was determined (BCA Protein Assay kit (Pierce)), diluted to 2.2 mg/ml, dispensed into 1 ml aliquots and stored at −80° C.
Membranes were thawed on ice, sonicated with 4 cycles of 20 pulses (50% amplitude, 0.5 pulse) (UP200S Hielscher) on ice, diluted in assay buffer (50 mM Tris-HCl (pH7.4), 5 mM MgCl2) to 62.5 μg/ml. Compound was serially diluted in DMSO before being diluted 1:10 with assay buffer. 5 μg of membrane in 80 μl of assay buffer was added per well of a 96 well polystyrene plate (Corning). 10 μl of compound was added per well. The assay was initiated by the addition of 10 μl of 20 nM ^3H-NαMH per well and incubated for one hour at room temperature with shaking Total binding was determined in the presence of 1% DMSO and non-specific binding was determined by the inclusion of 1 μM R-α-methyl-histamine (RαMH). Incubations were then filtered through filtermat A (Perkin Elmer) and washed three times with assay buffer. Filtermats were dried at 42° C. for two hours, scintillant added and the level of bound radioactivity determined.
IC50 values for compounds were determined from seven point log scale dose-response studies and represent the concentration of compound required to inhibit 50% of the specific binding of 2 nM ^3H-NαMH (difference between total and non-specific binding). Curves were generated using the average of duplicate wells for each data point and analyzed using nonlinear regression of sigmoidal dose response (variable slope).

Assay [3] concerns the target T2, H3 receptor (Rattus norvegicus, UniProt Q9QYN8).
T2 construct: host or cells: living rat (endogenous receptor)
To be noted: cited from earlier work.

For a further assay, the target named is rat H3 receptors (Rattus norvegicus, UniProt Q9QYN8). The conditions noted are these: cited from earlier work.
Sequence of rat H3 receptors (Q9QYN8 whole entry): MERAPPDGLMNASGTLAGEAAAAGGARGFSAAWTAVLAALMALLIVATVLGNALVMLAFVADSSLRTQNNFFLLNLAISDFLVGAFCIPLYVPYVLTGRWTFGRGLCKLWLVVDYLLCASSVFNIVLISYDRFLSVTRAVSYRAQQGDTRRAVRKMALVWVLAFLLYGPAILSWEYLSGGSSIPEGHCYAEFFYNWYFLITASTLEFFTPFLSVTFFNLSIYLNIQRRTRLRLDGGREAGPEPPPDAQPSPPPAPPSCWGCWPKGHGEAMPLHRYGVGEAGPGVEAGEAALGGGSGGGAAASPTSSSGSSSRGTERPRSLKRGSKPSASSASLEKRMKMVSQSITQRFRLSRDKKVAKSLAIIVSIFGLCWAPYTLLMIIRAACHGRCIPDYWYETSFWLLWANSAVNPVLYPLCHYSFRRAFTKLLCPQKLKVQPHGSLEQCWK
In assay [4] the target is T2, H3 receptor. To be noted: cited from earlier work. This is another data set of the same source.
Assay [5] deals with T1, human H3 receptor. The conditions noted are these: cited from earlier work.
Assay [6] has as its target T3, H3 receptor (Mus musculus, UniProt P58406).
T3 construct: host or cells: living mouse (endogenous receptor)
The conditions noted are these: mice; cited from earlier work.

In assay [7] the target is T3, H3 receptor. To be noted: lean and obese mice; cited from earlier work.
For assay [8], the system named is H3 receptor. To be noted: a number of acute pain models; cited from earlier work.

T2 sequence (Q9QYN8 whole entry): as above
T3 sequence (P58406 whole entry): as the sequence (Q9QYN8 whole entry) above, with T15A, A286T, A290G, R387H, I389V counted along it

As usually defined, the IC50 is the concentration that gives 50% inhibition. For the molecule `CO[C@@H]1CCN(c2ncc(C(=O)NCc3ccc4c(c3)CCN(C3CCC3)CC4)cn2)C1` [Example 1, N-[(3-cyclobutyl-2,3,4,5-tetrahydro-1H-3-benzazepin-7-yl)methyl]-2-[(3R)-3-methoxypyrrolidin-1-yl]pyrimidine-5-carboxamide], the IC50 at human H3 receptor [1] was 1 nM; at human H3 receptor [2], 0.5 nM.

With `CO[C@H]1CCN(c2ncc(C(=O)NCc3ccc4c(c3)CCN(C3CCC3)CC4)cn2)C1` [Example 2, N-[(3-cyclobutyl-2,3,4,5-tetrahydro-1H-3-benzazepin-7-yl)methyl]-2-[(3S)-3-methoxypyrrolidin-1-yl]pyrimidine-5-carboxamide], the IC50 at human H3 receptor [1] and at human H3 receptor [2] was 2 nM throughout.

In the case of `COC1CN(c2ncc(C(=O)NCc3ccc4c(c3)CCN(C3CCC3)CC4)cn2)C1` [Example 3, N-((3-cyclobutyl-2,3,4,5-tetrahydro-1H-3-benzazepin-7-yl)methyl)-2-(3-methoxyazetidin-1-yl)pyrimidine-5-carboxamide], the IC50 at human H3 receptor [1] is 2 nM; on human H3 receptor [2], 3 nM.

`O=C(NCc1ccc2c(c1)CCN(C1CCC1)CC2)c1cnc(N2CCC(F)(F)C2)nc1` [Example 4, N-[(3-cyclobutyl-2,3,4,5-tetrahydro-1H-3-benzazepin-7-yl)methyl]-2-(3,3-difluoropyrrolidin-1-yl)pyrimidine-5-carboxamide]: the IC50 on human H3 receptor [1] is 3 nM; on human H3 receptor [2] it was 2 nM.

`O=C(NCc1ccc2c(c1)CCN(C1CCC1)CC2)c1cnc(N2CCC(F)(F)CC2)nc1` [Example 5, N-((3-cyclobutyl-2,3,4,5-tetrahydro-1H-3-benzazepin-7-yl)methyl)-2-(4,4-difluoropiperidin-1-yl)pyrimidine-5-carboxamide]: the IC50 turned out to be 3 nM at human H3 receptor [1] and 1 nM at human H3 receptor [2].

`CO[C@H]1CCN(c2ncc(C(=O)N(C)Cc3ccc4c(c3)CCN(C3CCC3)CC4)cn2)C1` [Example 6, N-[(3-cyclobutyl-2,3,4,5-tetrahydro-1H-3-benzazepin-7-yl)methyl]-2-[(3S)-3-methoxypyrrolidin-1-yl]-N-methylpyrimidine-5-carboxamide]: the results for the IC50 on human H3 receptor [1] and on human H3 receptor [2] were 2 nM and 4 nM, respectively.

Turning to `CO[C@@H]1CCN(c2ncc(C(=O)N(C)Cc3ccc4c(c3)CCN(C3CCC3)CC4)cn2)C1` [Example 7, N-[(3-cyclobutyl-2,3,4,5-tetrahydro-1H-3-benzazepin-7-yl)methyl]-2-[(3R)-3-methoxypyrrolidin-1-yl]-N-methylpyrimidine-5-carboxamide], the IC50 at human H3 receptor [1] was determined as 6 nM; on human H3 receptor [2], 5 nM.

As to `CO[C@@H](C)CN(C)c1ncc(C(=O)NCc2ccc3c(c2)CCN(C2CCC2)CC3)cn1` [Example 8, N-[(3-cyclobutyl-2,3,4,5-tetrahydro-1H-3-benzazepin-7-yl)methyl]-2-{[(2S)-2-methoxypropyl](methyl)amino}pyrimidine-5-carboxamide], the results for the IC50 at human H3 receptor [1] and on human H3 receptor [2] were 2 nM and 0.73 nM, respectively.

On to `CO[C@H](C)CN(C)c1ncc(C(=O)NCc2ccc3c(c2)CCN(C2CCC2)CC3)cn1` [Example 9, N-[(3-cyclobutyl-2,3,4,5-tetrahydro-1H-3-benzazepin-7-yl)methyl]-2-{[(2R)-2-methoxypropyl](methyl)amino}pyrimidine-5-carboxamide], for which the IC50 on human H3 receptor [1] turned out to be 8 nM; on human H3 receptor [2], 4 nM.

As for `C[C@H]1CC[C@H](C)N1CCCOc1ccc(-c2ccc(C(=O)N3CCOCC3)cc2)cc1` [Example A-349821], the cognition-enhancing effects entry on H3 receptor [3] is “cognition-enhancing effects”.

For `CNC(=O)c1cnc(Oc2ccc3c(c2)CCN(C2CCC2)CC3)cn1` [GSK207040], at rat H3 receptors, the “affinity for rat H3 receptors” value was “high affinity”. Further, the tactile allodynia result on H3 receptor [4] was “reduced tactile allodynia”.

For the molecule `CC(C)N1CCCN(C(=O)C2CCN(c3ccc(C(F)(F)F)nc3)CC2)CC1` [GSK334429], the “affinity for human H3 receptors” value at human H3 receptor [5] is “high affinity”. Also, the “affinity for rat H3 receptors” value at rat H3 receptors is given as “high affinity”. On H3 receptor [4], the tactile allodynia entry is reported as “reduced tactile allodynia”.

Turning to `NC(=NCc1ccc(Cl)cc1)SCCCc1cnc[nH]1` [clobenpropit], at H3 receptor [6], the “histamine release in the hypothalamus” value is given as “increases histamine release”. For the same molecule, the energy intake result at H3 receptor [7] was “reducing energy intake”.

As to `S=C(NC1CCCCC1)N1CCC(c2cnc[nH]2)CC1` [thioperamide], the antinociceptive effect entry in the assay with H3 receptor [8] is “antinociceptive effect”.
